Assay results: PMC2850882, “Two additive mechanisms impair the differentiation of 'substrate-selective' p38 inhibitors from classical p38 inhibitors in vitro” (BMC Systems Biology, 2010)
Read-outs that look alike come from different tables or passages of the source. One block for each compound: values may come before it.

Tests used:
p38 = biological target: T1, p38 (Homo sapiens, UniProt Q16539); test: ATP-p38 affinity (in-house measurement); assay type: binding; conditions: kinetic model parameter
T1 construct: made in house
From the text: In order to aid in the interpretation of the dual substrate assay, we developed a simple kinetic model of p38-mediated phosphorylation of two substrates: ATF2 and MK2 (diagrammed in Figure 3a). Since p38 has a single kinase domain and ATP binding site, we assumed that p38 can only act on a single substrate at a time. For each substrate, a random-order bi-substrate (substrate + ATP) reaction mechanism was assumed. Active p38 can reversibly bind ATP, with affinity KD, ATP and ATP binding is independent of further complex formation. Active p38 (ATP bound and unbound) can reversibly bind to ATF2 or MK2 to form complexes p38-ATF2 or p38-MK2, respectively. Each complex undergoes an irreversible catalysis step to form products phospho-ATF2 (and ADP) or phospho-MK2 (and ADP). The model equations are a set of ordinary differential equations written in terms of mass-action kinetics. For the case where only one substrate is present, this model reduces to the single substrate assay.

p38-alpha (Homo sapiens) [1] = biological target: p38-alpha (Homo sapiens) (UniProt Q16539); conditions: cited from earlier work
[2] = biological target: p38-alpha (ATF-2 phosphorylation); parameters: method as in PMID 15362850; conditions: read-out: KI, app, phosphorylation of ATF-2; cited from earlier work
[3] = biological target: T2, p38 (phosphorylation of ATF2 in presence of MK2) (Homo sapiens, UniProt Q16539); test: ATF2/MK2 dual substrate assay, phospho-ATF2 readout (MSD); assay type: biochemical
T2 construct: made in house
Description: (§1) To this end, we designed a dual-substrate assay in which p38 could simultaneously phosphorylate MK2 and/or ATF2. The assay conditions chosen were 0.5 nM p38, 100 nM ATF2, 10 nM MK2, 50 uM ATP. As with the single substrate assay, MK2 phosphorylation was assayed at 30 min and ATF2 phosphorylation was assayed at 120 min to ensure that each measurement was within the linear range of the assay. ATP levels were measured at the end of the assay, to confirm that it was not being depleted.
(§2) The ability of active p38 to phosphorylate ATF2, MK2 or both was tested in a biochemical assay. Reagents were added in the following order: compound, substrate(s), ATP, p38 for a final reaction volume of 40 ul in low protein binding 96-well plates (Immulon-1B). […] Reactions were performed in buffer containing 20 mM HEPES pH 7.5, 10 mM MgCl2, 0.01% BSA, 0.0005% Tween-20, 2% DMSO and 0.1 mM DTT. Reactions were quenched with 40 ul of buffer containing 50 mM HEPES pH 7.5, 30 mM EDTA following different incubation times. Phosphorylated ATF2 and phosphorylated MK2 were assayed as described below. Compounds were diluted in DMSO (Sigma).
Phospho-ATF2 was measured with the Meso-Scale Discovery (MSD) platform using an in-house assay. […] Plates were incubated for > 3 hr at RT, washed 4× with 150 ul MSD Tris Wash Buffer and read on the Meso-Scale Discovery Sector imager using 2× MSD Read Buffer T.

[4] = biological target: T3, p38 (phosphorylation of MK2 in presence of ATF2) (Homo sapiens, UniProt Q16539); test: ATF2/MK2 dual substrate assay, phospho-MK2 readout (MSD); assay type: biochemical; conditions: 0.5 nM p38, 100 nM ATF2, 10 nM MK2, 50 uM ATP; measured at 30 min; ± standard error
T3 construct: made in house
Description: as §1, §2
Phospho-MK2 was measured with the MSD platform using an in-house assay. […] Plates were incubated for > 3 hr at RT, washed 4× with 150 ul MSD Tris Wash Buffer and read on the Meso-Scale Discovery Sector imager using 2× MSD Read Buffer T.

[5] = biological target: T4, p38 (phosphorylation of ATF2) (Homo sapiens, UniProt Q16539); test: Single substrate assay, phospho-ATF2 readout (MSD); assay type: biochemical
T4 construct: made in house
Description: (§3) In each case, the degree of phosphorylation serves as a readout of the activity of p38 for its respective substrate.
as §2
Phospho-ATF2 was measured with the Meso-Scale Discovery (MSD) platform using an in-house assay. […] Plates were blocked with 3% MSD Blocker A in MSD Tris Wash Buffer for at least 1 hr at RT. […] Plates were incubated for > 3 hr at RT, washed 4× with 150 ul MSD Tris Wash Buffer and read on the Meso-Scale Discovery Sector imager using 2× MSD Read Buffer T.

[6] = biological target: T5, p38 (phosphorylation of MK2) (Homo sapiens, UniProt Q16539); test: Single substrate assay, phospho-MK2 readout (MSD); assay type: biochemical; conditions: MK2 only; measured at 30 min; ± standard error
T5 construct: made in house
Description: as §3, §2
Phospho-MK2 was measured with the MSD platform using an in-house assay. […] Plates were blocked with 3% MSD Blocker A in MSD Tris Wash Buffer for at least 1 hr at RT. […] Plates were incubated for > 3 hr at RT, washed 4× with 150 ul MSD Tris Wash Buffer and read on the Meso-Scale Discovery Sector imager using 2× MSD Read Buffer T.

[7] = biological target: p38-alpha (MK2 phosphorylation); parameters: method as in PMID 15362850; conditions: read-out: KI, app, p38-alpha-dependent MK2 phosphorylation; cited from earlier work
p38-alpha (Homo sapiens) [8] = biological target: p38-alpha (Homo sapiens) (UniProt Q16539); conditions: cited from earlier work; remark: listed apart in the source

p38-alpha (Homo sapiens), sequence (Q16539 2-360): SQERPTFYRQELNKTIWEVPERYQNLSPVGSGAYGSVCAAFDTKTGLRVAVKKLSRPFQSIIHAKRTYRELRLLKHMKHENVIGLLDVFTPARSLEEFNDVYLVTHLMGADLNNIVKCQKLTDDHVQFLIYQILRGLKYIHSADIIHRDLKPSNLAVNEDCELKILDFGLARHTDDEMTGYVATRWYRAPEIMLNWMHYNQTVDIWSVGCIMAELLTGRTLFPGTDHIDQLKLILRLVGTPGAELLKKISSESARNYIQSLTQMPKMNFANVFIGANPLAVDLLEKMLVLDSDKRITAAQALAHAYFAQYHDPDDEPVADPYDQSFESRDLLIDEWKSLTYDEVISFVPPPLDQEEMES
T4 sequence (Q16539 whole entry): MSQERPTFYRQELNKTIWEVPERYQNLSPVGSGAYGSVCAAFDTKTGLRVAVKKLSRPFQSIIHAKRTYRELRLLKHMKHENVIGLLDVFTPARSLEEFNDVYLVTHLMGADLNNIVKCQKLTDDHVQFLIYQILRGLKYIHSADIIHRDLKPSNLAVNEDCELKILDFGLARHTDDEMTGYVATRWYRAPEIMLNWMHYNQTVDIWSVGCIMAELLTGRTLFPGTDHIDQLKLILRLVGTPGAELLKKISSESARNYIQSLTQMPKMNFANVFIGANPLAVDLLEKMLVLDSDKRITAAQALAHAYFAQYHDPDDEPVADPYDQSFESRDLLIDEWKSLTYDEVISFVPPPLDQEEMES
T2 sequence (Q16539 whole entry): as above
ATF2, sequence (P15336 whole entry): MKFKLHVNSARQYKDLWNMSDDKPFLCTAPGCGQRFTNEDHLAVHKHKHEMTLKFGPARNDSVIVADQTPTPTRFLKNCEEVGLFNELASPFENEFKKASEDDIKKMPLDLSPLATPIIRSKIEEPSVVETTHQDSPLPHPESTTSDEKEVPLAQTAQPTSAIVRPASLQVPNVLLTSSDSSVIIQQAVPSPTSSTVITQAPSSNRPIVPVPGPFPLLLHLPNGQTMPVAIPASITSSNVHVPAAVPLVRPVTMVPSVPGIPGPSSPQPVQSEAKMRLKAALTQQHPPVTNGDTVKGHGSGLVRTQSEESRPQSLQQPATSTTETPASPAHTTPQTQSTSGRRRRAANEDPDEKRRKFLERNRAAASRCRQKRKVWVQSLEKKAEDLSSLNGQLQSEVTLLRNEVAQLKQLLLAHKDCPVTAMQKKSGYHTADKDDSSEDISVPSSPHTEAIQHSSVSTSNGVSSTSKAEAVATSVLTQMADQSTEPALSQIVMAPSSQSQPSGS
T1 sequence (Q16539 whole entry): as the sequence (Q16539 whole entry) above
T5 sequence (Q16539 whole entry): as above
T3 sequence (Q16539 whole entry): as above
MK2, sequence (P49137 whole entry): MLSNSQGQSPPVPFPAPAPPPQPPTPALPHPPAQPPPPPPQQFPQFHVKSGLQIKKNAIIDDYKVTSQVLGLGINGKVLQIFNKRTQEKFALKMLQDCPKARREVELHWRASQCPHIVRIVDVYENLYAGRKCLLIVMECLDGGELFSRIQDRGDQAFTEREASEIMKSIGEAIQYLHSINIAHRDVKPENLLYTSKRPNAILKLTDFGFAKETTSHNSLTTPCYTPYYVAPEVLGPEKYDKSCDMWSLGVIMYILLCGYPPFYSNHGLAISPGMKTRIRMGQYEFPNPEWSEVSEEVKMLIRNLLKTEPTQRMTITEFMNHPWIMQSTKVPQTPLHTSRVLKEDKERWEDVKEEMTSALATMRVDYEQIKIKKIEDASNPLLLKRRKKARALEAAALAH

Compound: Nc1ncnc2c1ncn2[C@@H]1O[C@H](COP(=O)(O)OP(=O)(O)OP(=O)(O)O)[C@@H](O)[C@H]1O [ATP]
- Kd (p38): 67 µM

Compound: MK2 (from UniProt P49137)
- Kd (p38-alpha (Homo sapiens) [1]): 0.02 µM

- IC50 ([3]; 0.5 nM p38, 100 nM ATF2, 10 nM MK2, 50 uM ATP, measured at 120 min, ± standard error): 27 ± 16 µM
- substrate selectivity = (ATF2 IC50)/(MK2 IC50), dual substrate assay ([3]; ratio of dual substrate assay IC50s): 0.66
- IC50 [4]: 41 ± 2.2 µM
- IC50 ([5]; ATF2 only, measured at 120 min, ± standard error): > 400 µM
- substrate selectivity = (ATF2 IC50)/(MK2 IC50), single substrate assay ([5]; ratio of single substrate assay IC50s): >17
- IC50 [6]: 23.4 ± 1.9 µM
Compound: O=C(CCCc1ccc(-c2ccccc2F)cc1)Nc1ccc(O)cc1 [CMPD1]
- Ki [2]: > 20 µM
- Ki [7]: 0.33 µM

Compound: ATF2 (from UniProt P15336)
- Kd (p38-alpha (Homo sapiens) [8]): 38 µM
